Results taken from patent US11458106B2, “Lipid nanoparticles comprising lipophilic anti-inflammatory agents and methods of use thereof” (ASTRAZENECA AB, priority 2016, dated 2022).

Tests used:
mRNA 1 protein = assay: Quantification of mRNA 1 protein in plasma; type: in vivo, mice; settings: s.c. 0.3 mg mRNA/kg; for protein expression (plasma mRNA 1 protein): Example 6, pro-drug in DLin-MC3-DMA LNPs, 0-24 h, vs. non-anti-inflammatory LNPs; for expression of mRNA 1 (plasma): Example 10, pro-drug in L608 (Merck-32) LNPs, vs. conventional LNPs (Sample S26)
Protocol: (§1) Different groups of 5 mice (female, age˜12 weeks, Crl:Cd1(ICR), Charles River) were administered with PBS (negative control) or mRNA 1 formulated in lipid nanoparticles. Prior to administration, the mice were lightly anaesthetized with Isoflurane 5% and the injection area was shaved. The formulations were then injected subcutaneously (5 ml/kg or 0.3 mg mRNA/kg) in the intrascapular region to different groups of mice. Post-dose blood samples were collected and plasma was prepared by centrifugation. Aliquots of plasma were transferred into cryo tubes (0.5 ml U-shaped polypropylene cryotubes (Sarstedt Microtube with cap Ref #72.730) and stored frozen until quantification of haptoglobin, cytokines/chemokines and mRNA 1 protein concentrations. In some studies, quantification was also carried out of lipophilic anti-inflammatory agent in plasma samples. At 24 hours after administration, clinical signs of inflammatory response was evaluated by gently pressing the finger over the injection area to determine edema and judged by visual inspection as edema or no edema in the different mice. The number of mice displaying visible signs of edema per group (each group having 5 mice) was summed to give an edema score of 0-5.
mRNA 1 protein was measured as a single analyte with the Milliplex Human Liver Protein Magnetic beads [Merck Millipore, Darmstadt, Germany]. The assay was performed using the Bioplex Multiplex Suspension Array System, Luminex 100TM] and Bioplex Manager 6.1 software curve fitting software [Bio-Rad Laboratories, Hercules, Calif.]. Briefly, the assay was performed according to a modified protocol based upon the manufacturers' instruction, with additional calibration points to extend the lower range of the standard curve. Sample data was back calculated from the standard curve (5PL curve fitting).

haptoglobin = assay: Quantification of haptoglobin in plasma; type: in vivo, mice; settings: 24 h; for haptoglobin in plasma: s.c. 0.3 mg mRNA/kg
Protocol: as §1
Plasma concentrations of haptoglobin were measured by EMD Millipore's MILLIPLEX® MAP Mouse Acute Phase panel 2 kit (Merck KGaA, Darmstadt, Germany). The sample was first diluted 1:20 000 with Assay buffer then, together with standard's and QC's placed in a 96 well plate. A solution containing beads were then added. The beads were magnetic microspheres each of which was coated with a specific antibody. The mixture was incubated over night at 4° C. and the reaction mixture was then incubated with Streptavidin-PE conjungate to complete the reaction on the surface of each microsphere. The plate was read on analyzer Luminex® 100. Each individual microsphere was identified and the result of its bioassay quantified based on fluorescent reporter signals. The concentration was measured using Median Fluorescent Intensity (MFI) data using a 5-parameter logistic curve-fitting method.

KC = assay: Quantification of cytokines/chemokines in plasma: KC; type: in vivo, mice; settings: Example 10; pro-drug in L608 (Merck-32) LNPs, s.c. 0.3 mg mRNA/kg, 7 and 24 hours; vs. Sample S26
Protocol: (§2) Different groups of 5 mice (female, age˜12 weeks, Crl:Cd1(ICR), Charles River) were administered with PBS (negative control) or mRNA 1 formulated in lipid nanoparticles. Prior to administration, the mice were lightly anaesthetized with Isoflurane 5% and the injection area was shaved. The formulations were then injected subcutaneously (5 ml/kg or 0.3 mg mRNA/kg) in the intrascapular region to different groups of mice. Post-dose blood samples were collected and plasma was prepared by centrifugation. Aliquots of plasma were transferred into cryo tubes (0.5 ml U-shaped polypropylene cryotubes (Sarstedt Microtube with cap Ref #72.730) and stored frozen until quantification of haptoglobin, cytokines/chemokines and mRNA 1 protein concentrations. In some studies, quantification was also carried out of lipophilic anti-inflammatory agent in plasma samples. At 24 hours after administration, clinical signs of inflammatory response was evaluated by gently pressing the finger over the injection area to determine edema and judged by visual inspection as edema or no edema in the different mice. The number of mice displaying visible signs of edema per group (each group having 5 mice) was summed to give an edema score of 0-5. Plasma concentrations of murine cytokines/chemokines were measured by EMD Millipore's MILLIPLEX® MAP Mouse Cytokine magnetic bead kit (Merck KGaA, Darmstadt, Germany) for the simultaneous quantification of cytokines; IL-6, KC, MCP-1 and IP-10. The samples were first diluted 1:2 with Assay buffer then, together with standard's and QC's placed in a 96 well plate. A solution containing beads were added. The beads are magnetic microspheres each of which is coated with a specific antibody. The mixture was incubated over night at 4° C. and the reaction mixture was then incubated with Streptavidin-PE conjungate to complete the reaction on the surface of each microsphere. The plate was read on analyzer Luminex® 100. Each individual microsphere was identified and the result of its bioassay quantified based on fluorescent reporter signals. The concentration was measured using Median Fluorescent Intensity (MFI) data using a 5-parameter logistic curve-fitting method.

IL-6 = assay: Quantification of cytokines/chemokines in plasma: IL-6; type: in vivo, mice; settings: Example 10; pro-drug in L608 (Merck-32) LNPs, s.c. 0.3 mg mRNA/kg, 7 and 24 hours; vs. Sample S26
Protocol: as §2

[1] = system: mice (female, Crl:Cd1(ICR)); assay: Edema scoring at injection area after subcutaneous administration; type: in vivo
Protocol: as §1

[2] = Example 6, pro-drug in DLin-MC3-DMA LNPs, vs. non-anti-inflammatory LNPs
[3] = Example 9, in both Acuitas-5 and KL10 based LNPs, s.c. 0.3 mg/kg, compared to LNPs based on DLin-MC3-DMA
[4] = Example 10, pro-drug in L608 (Merck-32) LNPs, vs. conventional LNPs (Sample S26)
[5] = Example 6, pro-drug in DLin-MC3-DMA LNPs with mRNA 1, s.c. 0.3 mg mRNA/kg, vs. non-anti-inflammatory LNPs
[6] = Example 10, pro-drug in L608 (Merck-32) LNPs, s.c. 0.3 mg mRNA/kg, vs. conventional LNPs (Sample S26)
[7] = Example 7, in both DLin-MC3-DMA or Merck-32 based LNPs

Row | SMILES | protein expression (plasma mRNA 1 protein) (mRNA 1 protein) | mRNA 1 protein expression (mRNA 1 protein; Example 9, time interval 0-24 h, Acuitas-5 and KL10 LNPs with vs without rofleponide myristate) | expression of mRNA 1 (plasma) (mRNA 1 protein) | haptoglobin in plasma (haptoglobin; [2]) | plasma haptoglobin (haptoglobin; [3]) | haptoglobin in plasma (haptoglobin; [4]) | plasma KC (KC) | plasma IL-6 (IL-6) | inflammation measured as edema scoring [1, 5] | inflammation measured as edema scoring [1, 3] | inflammation measured as edema scoring [1, 6] | expression of mRNA 1 protein (mRNA 1 protein; [7]) | haptoglobin in plasma (haptoglobin; [7]) | inflammation measured as edema scoring ([1]; Example 7, in both DLin-MC3-DMA or Merck-32 based LNPs, s.c. 0.3 mg mRNA/kg, 24 h, vs same LNPs without)
1 | CCCCCCCCCCCCCC(=O)OCC(=O)C12OC(CCC)OC1CC1C3CC(F)C4=CC(=O)CCC4(C)C3(F)C(O)CC12C (stereo not shown) [R-C14, rofleponide myristate] | increased and prolonged protein expression | increased | increased and prolonged expression of mRNA 1 | significantly reduced | reduced | significantly reduce | significantly reduce | significantly reduce | significantly reduced | reduced | significantly reduce |  |  | 
2 | CCCCCCCC/C=C\CCCCCCCC(=O)OCC(=O)[C@@]12OC(CCC)O[C@@H]1C[C@H]1[C@@H]3CCC4=CC(=O)C=C[C@]4(C)[C@H]3[C@@H](O)C[C@@]12C (stereo partly shown) [B-C18:1, budesonide oleate] |  |  | increased and prolonged expression of mRNA 1 |  |  | significantly reduce | significantly reduce | significantly reduce |  |  | significantly reduce |  |  | 
3 | CCCCCCCCCCCCCC(=O)OCC(=O)[C@@]12OC(CCC)O[C@@H]1C[C@H]1[C@@H]3CCC4=CC(=O)C=C[C@]4(C)[C@H]3[C@@H](O)C[C@@]12C (stereo partly shown) [B-C14, budesonide myristate] |  |  |  |  |  | not influenced to the same extent | not influenced to the same extent | not influenced to the same extent |  |  | not influenced to the same extent |  |  | 
4 | CCCCCCCCCCCCCCCC(=O)OCC(=O)[C@@]12OC(CCC)O[C@@H]1C[C@H]1[C@@H]3CCC4=CC(=O)C=C[C@]4(C)[C@H]3[C@@H](O)C[C@@]12C (stereo partly shown) [B-C16, budesonide palmitate] |  |  | increased and prolonged expression of mRNA 1 |  |  | significantly reduce | significantly reduce | significantly reduce |  |  | significantly reduce |  |  | 
5 | CCCCC(=O)OCC(=O)[C@@]12O[C@H](CCC)O[C@@H]1C[C@H]1[C@@H]3C[C@H](F)C4=CC(=O)CC[C@]4(C)[C@@]3(F)[C@@H](O)C[C@@]12C [R-C5, rofleponide valerate] | did not produce a significantly increased total protein expression |  |  | not significantly influenced |  |  |  |  | not significantly influenced |  |  |  |  | 
6 | CCCCCCCCCCCCCCCCCC(=O)OCC(=O)[C@@]12O[C@H](CCC)O[C@@H]1C[C@H]1[C@@H]3C[C@H](F)C4=CC(=O)CC[C@]4(C)[C@@]3(F)[C@@H](O)C[C@@]12C [R-C18, rofleponide stearate] | increased and prolonged protein expression |  |  | significantly reduced |  |  |  |  | significantly reduced |  |  |  |  | 
7 | CCCCCCCCCCCCCCCC(=O)OCC(=O)C12OC(CCC)OC1CC1C3CC(F)C4=CC(=O)CCC4(C)C3(F)C(O)CC12C (stereo not shown) [R-C16, rofleponide palmitate] | increased and prolonged protein expression |  |  | significantly reduced |  |  |  |  | significantly reduced |  |  | increased expression of mRNA 1 protein | significantly reduced | significantly reduced
